Test results from patent publication US4783482A, “Bis(thiocyanato)palladium(II)complexes” (Engelhard Corporation, priority 1985, dated 1988).
“And” between values parts separate entries of the source, which are not always exact repeats. Identical values can stand only once.

Key:
S180 ascites [1] = test: Anti-tumor evaluation: % increase in life span (% ILS) and survivors, S180 ascites in female CFW Swiss mice; type: in vivo; details: for Best % ILS: best over doses
Description: The above-prepared compounds were evaluated against S180 ascites in female CFW Swiss mice. The mice were weighed (average weight: 20 g), placed into cages (four or six mice to a cage), and on day zero the mice were inoculated with 0.2 ml of a freshly prepared saline suspension (0.15 M NaCl) containing 1×10^7 tumor cells/ml or a total of 2×10^6 cells This inoculum was freshly prepared using "transfer" mice, which had been injected with tumor cells the previous week; it was obtained via the following steps: (1) the removal of cells from the peritoneal cavity of the sacrificed transfer mouse, (2) alternate centrifugation and washing operations (2-3 times with cold saline) to remove blood and other components, and (3) dilution of the volume of the packed cell with saline (1:3). A final centrifugation was carried out at 1000 RPM over a two minute period. A cell count was made on a 2,000-fold dilution of this 1:3 suspension by means of a Coulter Counter. A final dilution to 1×10^7 cells/ml was made, based on the average count.
On day 1, solutions of the test compounds were prepared, and each mouse in a set of four or six were injected with the same test compound at the same dosage. The doses were based on the average weight of the animals (cage weight). Also, beginning on day 1, two controls were employed containing six mice per control:
(1) Normal Control: This consisted solely of the carrier or diluent used in combination with the test compound; and
(2) Positive Control: This consisted solely of known anti-tumor agent cis-[Pt(NH3)2 Cl2 ] in saline (8 mg/kg) to test the response of the biological system.
The effectiveness of a test compound was measured in terms of the % increase in life span (%ILS) of the test mice relative to the Normal Control (Calculated from the day of tumor inoculation, i.e., day zero). To standardize the test data and permit intercomparisons, the day of evaluation was arbitrarily taken as that day corresponding to twice the mean life span (or average day of death) of the control. This established a practical upper limit of 100% on the %ILS attainable. For calculation purposes, the survivors of the day of evaluation were considered to have died on that day. The %ILS was calculated as follows: [formula] ILS values in excess of 50% were interpreted as antitumor activity, whereas values in excess of 75% indicated excellent antitumor activity.
All test compounds were evaluated in water containing 0.1-0.3% of the suspending agent "Klucel" (hydroxypropylcellulose).
Tables 3 and 4, infra, show the criticality of the ring size and the thiocyanato substituents, respectively. The protocols for determining effectiveness for the products in Tables 3 and 4 were identical to the procedure employed for determining the anti-tumor effectiveness of the products in Table 2.

S180 Ascites [2] = test: ED90, LD50 and therapeutic index, S180 ascites; type: in vivo, mice; set-up: ED90: unit not given here; details: for Therapeutic Index: mouse, in vivo; for ED90: dose which causes a 50% increase in life span in 90% of the mice, determined graphically
Description: The effective dose (ED90), lethal does (LD50) and therapeutic index (TI) were determined, via the method of Miller and Taiter (Reported by R. A. Turner, "Screening Methods in Pharmacology", Academic Press, New York, pages 61-62 (1976)).
In this study, ED90 represents the dose which causes a 50% increase in life span (ILS) in 90% of the test animals (mice), determined graphically. The LD50 value represents the lethal dose in 50% of said animals.

[3] = system: testicular and ovarian tumors; details: background; cited from earlier work
[4] = dose 5 mg/kg, on day of evaluation (twice mean life span of control)
[5] = dose 10 mg/kg, on day of evaluation
[6] = dose 20 mg/kg, on day of evaluation
[7] = dose 40 mg/kg, on day of evaluation
[8] = dose 80 mg/kg, on day of evaluation
[9] = dose 160 mg/kg, on day of evaluation

CC1C[NH][Pd]([S]C#N)([S]C#N)[NH]1 (stereo not shown) [Ex. 2, Bis(Thiocyanato)-1,2-Diaminopropanepalladium(II)]
Best % ILS (S180 ascites [1]): 59%
% ILS (S180 ascites [1]; dose 5 mg/kg): 16%
Survivors (S180 ascites [1]; [4]): 0 of 6
% ILS (S180 ascites [1]; dose 10 mg/kg): 13%
Survivors (S180 ascites [1]; [5]): 0 of 6
% ILS (S180 ascites [1]; dose 20 mg/kg): 17%
Survivors (S180 ascites [1]; [6]): 0 of 6
% ILS (S180 ascites [1]; dose 40 mg/kg): 59%
Survivors (S180 ascites [1]; [7]): 2 of 6
% ILS (S180 ascites [1]; dose 80 mg/kg): -21%
Survivors (S180 ascites [1]; [8]): 1 of 6
% ILS (S180 ascites [1]; dose 160 mg/kg): -74%
Survivors (S180 ascites [1]; [9]): 0 of 6

N#C[S][Pd][S]C#N.NC1CCCCC1N (stereo not shown) [Ex. 3, Bis(ThiocYanato)-1,2-Diaminocyclohexanepalladium(II)]
Therapeutic Index (S180 Ascites [2]): 2.0 and 2.8
Best % ILS (S180 ascites [1]): 100% and 75%
% ILS (S180 ascites [1]; dose 5 mg/kg): 0%
Survivors (S180 ascites [1]; [4]): 0 of 4
% ILS (S180 ascites [1]; dose 10 mg/kg): 5%
Survivors (S180 ascites [1]; [5]): 0 of 4
% ILS (S180 ascites [1]; dose 20 mg/kg): 1%
Survivors (S180 ascites [1]; [6]): 0 of 4
% ILS (S180 ascites [1]; dose 40 mg/kg): -1% and -3%
Survivors (S180 ascites [1]; [7]): 0 of 4
% ILS (S180 ascites [1]; dose 60 mg/kg): 22%
Survivors (S180 ascites [1]; dose 60 mg/kg, on day of evaluation): 0 of 4
% ILS (S180 ascites [1]; dose 80 mg/kg): 75% and 100%
Survivors (S180 ascites [1]; [8]): 3 of 4 and 4 of 4
% ILS (S180 ascites [1]; dose 100 mg/kg): 79%
Survivors (S180 ascites [1]; dose 100 mg/kg, on day of evaluation): 2 of 4
% ILS (S180 ascites [1]; dose 120 mg/kg): 36%
Survivors (S180 ascites [1]; dose 120 mg/kg, on day of evaluation): 2 of 4
% ILS (S180 ascites [1]; dose 140 mg/kg): 36%
Survivors (S180 ascites [1]; dose 140 mg/kg, on day of evaluation): 1 of 4
% ILS (S180 ascites [1]; dose 160 mg/kg): 39%
Survivors (S180 ascites [1]; [9]): 1 of 4

C[NH+]1CC[NH+](C)[Pd-2]1([S]C#N)[S]C#N (stereo not shown) [Ex. 4, Bis(Thiocyanato)-N,N'-Dimethylethylenediaminepalladium(II)]
Best % ILS (S180 ascites [1]): 62%
% ILS (S180 ascites [1]; dose 5 mg/kg): -2%
Survivors (S180 ascites [1]; [4]): 0 of 6
% ILS (S180 ascites [1]; dose 10 mg/kg): 1%
Survivors (S180 ascites [1]; [5]): 0 of 6
% ILS (S180 ascites [1]; dose 20 mg/kg): -5%
Survivors (S180 ascites [1]; [6]): 0 of 6
% ILS (S180 ascites [1]; dose 40 mg/kg): 18%
Survivors (S180 ascites [1]; [7]): 1 of 6
% ILS (S180 ascites [1]; dose 80 mg/kg): 62%
Survivors (S180 ascites [1]; [8]): 2 of 6
% ILS (S180 ascites [1]; dose 160 mg/kg): -45%
Survivors (S180 ascites [1]; [9]): 1 of 6

N#C[S][Pd]1([S]C#N)[NH]c2ccccc2[NH]1 [Ex. 5, Bis(Thiocyanato)-o-Phenylenediaminepalladium(II)]
ED90 (S180 Ascites [2]): 130
Best % ILS (S180 ascites [1]): 81%
% ILS (S180 ascites [1]; dose 10 mg/kg): 14%
Survivors (S180 ascites [1]; [5]): 0 of 4
% ILS (S180 ascites [1]; dose 20 mg/kg): 15%
Survivors (S180 ascites [1]; [6]): 0 of 4
% ILS (S180 ascites [1]; dose 40 mg/kg): 27%
Survivors (S180 ascites [1]; [7]): 0 of 4
% ILS (S180 ascites [1]; dose 80 mg/kg): 81%
Survivors (S180 ascites [1]; [8]): 2 of 4
% ILS (S180 ascites [1]; dose 160 mg/kg): 79%
Survivors (S180 ascites [1]; [9]): 1 of 4
% ILS (S180 ascites [1]; dose 320 mg/kg): -73%
Survivors (S180 ascites [1]; dose 320 mg/kg, on day of evaluation): 0 of 4

Cc1cc2c(cc1C)[NH][Pd]([S]C#N)([S]C#N)[NH]2 [Ex. 6, Bis(Thiocyanato)-4,5-Dimethyl-o-Phenylenediaminepalladium(II)]
ED90 (S180 Ascites [2]): 200
Therapeutic Index (S180 Ascites [2]): 1.8
Best % ILS (S180 ascites [1]): 65%
% ILS (S180 ascites [1]; dose 5 mg/kg): -1%
Survivors (S180 ascites [1]; [4]): 0 of 6
% ILS (S180 ascites [1]; dose 10 mg/kg): 24%
Survivors (S180 ascites [1]; [5]): 0 of 6
% ILS (S180 ascites [1]; dose 20 mg/kg): 10%
Survivors (S180 ascites [1]; [6]): 0 of 6
% ILS (S180 ascites [1]; dose 40 mg/kg): 2%
Survivors (S180 ascites [1]; [7]): 0 of 6
% ILS (S180 ascites [1]; dose 80 mg/kg): 13%
Survivors (S180 ascites [1]; [8]): 0 of 6
% ILS (S180 ascites [1]; dose 160 mg/kg): 65%
Survivors (S180 ascites [1]; [9]): 2 of 6

N.N.[Cl][Pt][Cl] [Positive Control, cis-[Pt(NH3)2 Cl2]]
anti-tumor activity (in words) [3]: singularly successful in bringing about a regression of testicular and ovarian tumors
Positive Control Survivors (S180 ascites [1]; 8 mg/kg in saline, run beside the test compound): 2 of 6 and 3 of 6 and 1 of 4 and 1 of 6 and 0 of 6
